Key:
Test in all cases: Temocillin MIC, agar dilution (Example 1)
Assay type in all cases: cell-based, Enterobacteriaceae
AmpC strains = settings: Ex 1; temocillin alone; MIC in mg/l
Procedure: (§1) Determination of the MICs with Respect to Temocillin for a Panel of CPE Strains (Using the Agar Dilution Method)
(§2) Reaction medium: the base is a chromLD™ CPS medium (bioMérieux, ref. 43821-43829), comprising a chromogenic substrate for beta-glucuronidase, a chromogenic substrate for beta-glucosidase, a chromogenic substrate for beta-galactosidase and a substrate for deaminase. Temocillin is added to this base medium at the concentrations indicated hereinafter.
(§3) Temocillin range tested: 50-150-200-300 mg/l (disodium temocillin, Eumedica SA, Manage, Belgium).
(§4) The media are inoculated by depositing a spot: 1 μl of a microbial suspension in physiological saline at 0.5 McF, diluted to 1/10.
(§5) Incubation for 24 h at 37° C.
(§6) Reading after incubation for 24 hours. The medium with the smallest temocillin concentration on which a negative growth spot is obtained will be retained as the MIC. The spots having only 3 colonies or less or a total absence of growth were considered to be negative.

BLSE strains = settings: Ex 1; temocillin alone; MIC in mg/l
Procedure: as §1, §2, §3, §4, §5, §6

IMP strains = settings: Ex 1; temocillin alone; MIC in mg/l
Procedure: as §1, §2, §3, §4, §5, §6

KPC strains = settings: Ex 1; temocillin alone; MIC in mg/l
Procedure: as §1, §2, §3, §4, §5, §6

Non-OXA-48 strains = test system: Non-OXA-48 strains
Procedure: as §1, §2, §3, §4, §5, §6

SMILES: CO[C@@]1(NC(=O)C(C(=O)O)c2ccsc2)C(=O)N2[C@@H](C(=O)O)C(C)(C)S[C@@H]21 (stereo partly shown) [temocillin]
- No. of AmpC strains with MIC 150 (AmpC strains): 0
- No. of AmpC strains with MIC 200 (AmpC strains): 0
- No. of AmpC strains with MIC 300 (AmpC strains): 0
- No. of AmpC strains with MIC >300 (AmpC strains): 0
- No. of AmpC strains with MIC ≦50 (AmpC strains): 10
- No. of BLSE strains with MIC 150 (BLSE strains): 0
- No. of BLSE strains with MIC 200 (BLSE strains): 0
- No. of BLSE strains with MIC 300 (BLSE strains): 0
- No. of BLSE strains with MIC >300 (BLSE strains): 2
- No. of BLSE strains with MIC ≦50 (BLSE strains): 8
- No. of IMP strains with MIC 150 (IMP strains): 0
- No. of IMP strains with MIC 200 (IMP strains): 0
- No. of IMP strains with MIC 300 (IMP strains): 0
- No. of IMP strains with MIC >300 (IMP strains): 1
- No. of IMP strains with MIC ≦50 (IMP strains): 12
- No. of KPC strains with MIC 150 (KPC strains): 1
- No. of KPC strains with MIC 200 (KPC strains): 0
- No. of KPC strains with MIC 300 (KPC strains): 0
- No. of KPC strains with MIC >300 (KPC strains): 3
- No. of KPC strains with MIC ≦50 (KPC strains): 8
- MIC (Non-OXA-48 strains; most of the non-OXA-48 strains): ≤ 200 µg/mL
- MIC (Non-OXA-48 strains; only a few non-OXA-48 strains): > 300 µg/mL

Reference: patent US9562899B2, “Method of detecting OXA-048 carbapenemase producing bacteria” (BIOMÉRIEUX, priority 2012, dated 2017)
